Data published in patent US20130190275A1, “COMBINED THERAPIES OF ANTIPSYCHOTIC DRUGS AND TETRACYCLINES IN THE TREATMENT OF PSYCHIATRIC DISORDERS” (MOR RESEARCH APPLICATIONS LTD., priority 2006, published 2013).
Counter-ions that a name gives are not always drawn.

What was measured:
Type in all cases: in vivo, rat
MK801 treated rats [1] = experiment: Habituation of the Acoustic Startle Response (ASR), MK801 animal model
Method: (§1) Acoustic Startle Response (ASR) and Pre-Pulse Inhibition (PPI): Both experimental paradigms were performed in a room that was adjacent to the laboratory facilities and the animal stall and that was not used for other experiments. The animals were tested in squad of two with startle chambers counterbalanced across the different experimental groups. Startle response and prepulse inhibition were measured using two ventilated startle chambers (SR-LAB system, San Diego Instruments, San Diego, Calif.). Each chamber consisted of a Plexiglas cylinder resting on a platform inside a sound-attenuated, ventilated chamber. A high-frequency loudspeaker inside the chamber produced both a continuous broadband background noise of 70 dB and the various acoustic stimuli. Movement inside the tube was detected by a piezoelectric accelerometer below the frame. The amplitude of the whole body startle to an acoustic pulse was defined as the average of 100 one-msec accelerometer readings collected from pulse onset. These signals were then digitized and stored by a computer. Sound levels within each test chamber were measured routinely using a sound level meter (Radio Shack) to ensure consistent presentation. The SR-LAB calibration unit was used routinely to ensure consistent stabilimeter sensitivity between test chambers and over time (Swerdlow and Geyer, 1998, Schizophrenia Bulletin, 24(2), 285-301).
(§2) Fifteen minutes before the behavioral procedures conducted at the fourth day, the subject was injected i.p. with an 0.1 mg/kg dose of MK801 or saline, for a total volume of 1 ml per kg of body weight. Next, the subjects passed the three behavioral procedures, described in the following paragraphs.
(§3) ASR and PPI were measured using two startle chambers, with each chamber consisting of a Plexiglas cylinder resting on a platform inside a sound-attenuated, ventilated chamber (see also materials section). The animals were tested in pairs with startle chambers counterbalanced across the different experimental groups.
The ASR test measured the ability of the animal to habituate to repetitive loud pulses of noise. […] Movement inside the tube was detected by a piezoelectric accelerometer below the frame. The amplitude of the whole body startle to an acoustic pulse was defined as the average of 100 one-msec accelerometer readings collected from pulse onset. […]
Acoustic Startle Response (ASR): The decrease in ASR in the groups was calculated as the percent of amplitude decrease between the mean of the first five amplitude values and the mean of the last 25 amplitude values.
Percent habituation=100×[(average startle amplitude in Block 1)−(average startle amplitude in Block 5)/(average startle amplitude in Block 1)]. Results were analyzed by two-way ANOVA a between-subject measure of ‘group’ (treatment group).

MK801 treated rats [2] = experiment: Pre-Pulse Inhibition (PPI) paradigm, MK801 animal model
Method: as §1, §2, §3
PPI of the startle response was used as a measure of sensorimotor gating, with the startle chambers used to assess the ability of prepulse stimuli to block the startle response. […]
Pre-Pulse Inhibition (PPI): Startle magnitude is expressed in all the procedures as arbitrary units. Percent PPI (% PPI) was calculated as the mean startle magnitude to stimulus-alone minus the mean startle magnitude to prepulse-stimulus trials, all divided by the mean stimulus-alone trials, and multiplied by 100. The overall mean % PPI was calculated for the four prepulse intensities (72, […], 80, 84 dB). Results were analyzed by two-way ANOVA with a between-subject measure of ‘group’ (difference the treatment groups) and ‘prepulse intensity’ (72, 76, 80, 84 dB).

MK801 treated rats [3] = experiment: Morris Water Maze (MWM) task, MK801 animal model of schizophrenia; conditions: MK801 alone vs saline group, p<0.001
Method: Morris Water Maze (MWM): The MWM consisted of a water pool (diameter=1.8 m; depth=0.6 m) containing water at 26±1° C. A hidden platform was located 1.5 cm below the water surface. Within the testing room, only distal visuo-spatial cues were available to the rats for location of the submerged platform. A video camera was placed above the center of the pool for tracking the rat, and a video tracking system (Noldus Information Technology b.v., Wageninpen, The Netherlands) with online digital output, directly fed data into a computer and analyzed. Data were analyzed by using an Etho-Vision automated tracking system (Noldus Information Technology).
as §2
The MWM, a hippocampal-dependent visuo-spatial learning task, was used to assess the subjects' spatial learning/memory. The ability of an animal to locate a hidden platform submerged under water by using extra-maze cues from the test environment was examined. The rats were trained in a pool 1.8 m in diameter and 0.6 m high, containing water at 26±1° C. A 10 cm square transparent platform was hidden in a constant position in the pool submerged 1 cm below the water level. Within the testing room only distal visuo-spatial cues were available to the rats for location of the submerged platform.
Rats were given four trials per day, to find the hidden platform (acquisition phase). The escape latency, i.e., the time required by the rat to find and climb onto the platform, was recorded for up to 120 sec. Each rat was allowed to remain on the platform for 30 sec, and was then removed to its home cage.
Morris Water Maze (MWM): Escape latency, the time between placing the rat in the pool until it located the platform, was measured during behavioral testing. The escape latency was analyzed by means of […] repeated measures analysis of variance (ANOVA) with a between-subjects measure of ‘group’ (treatment group) and a within-subjects measure of ‘trail’ (effects amongst groups in the four different trials).
The MWM test was then performed (see FIG. 1 for results). A significant main effect of ‘group’, ‘trail’ and a significant ‘group’×‘trails’ interaction was found in the repeated measured ANOVA for the MWM task [F(5,35)=9.699, p<0.001; F(3,33)=31.551, p<0.001; F(15,91)=1.824, p<0.05; respectively].

[4] = drug+MK801 0.1 mg/kg i.p., minocycline 35 mg/kg x 3 days pretreatment, haloperidol 0.4 mg/kg i.p.

SMILES | percent habituation of the startle response (% habituation) (MK801 treated rats [1]; MK801 alone vs saline treated rats) | percent of PPI (% PPI) (MK801 treated rats [2]; MK801 alone vs saline treatment group) | escape latency (MK801 treated rats [3]) | percent habituation of the startle response (% habituation) (MK801 treated rats [1]; [4]) | percent of PPI (% PPI) (MK801 treated rats [2]; [4])
C[C@]12N[C@H](Cc3ccccc31)c1ccccc12 [MK801, Dizocilpine maleate] | induced a significant deficit in the habituation of ASR | induced a significant deficit in the PPI | longer escape latencies |  | 
O=C(CCCN1CCC(O)(c2ccc(Cl)cc2)CC1)c1ccc(F)cc1 [haloperidol] |  |  |  | not able to prevent the deficits induced by MK801 | lack of significant effects
